Patent publication US10519152B2, “Compounds and their use in treating cancer” (AstraZeneca AB, priority 2017, dated 2019)

Molecular target: T1, Estrogen Receptor (ERα) in MCF-7 human ductal carcinoma breast cell line (Homo sapiens, UniProt P03372)
T1 construct: endogenous in cells; host or cells: MCF-7
T1 sequence (P03372 1-595): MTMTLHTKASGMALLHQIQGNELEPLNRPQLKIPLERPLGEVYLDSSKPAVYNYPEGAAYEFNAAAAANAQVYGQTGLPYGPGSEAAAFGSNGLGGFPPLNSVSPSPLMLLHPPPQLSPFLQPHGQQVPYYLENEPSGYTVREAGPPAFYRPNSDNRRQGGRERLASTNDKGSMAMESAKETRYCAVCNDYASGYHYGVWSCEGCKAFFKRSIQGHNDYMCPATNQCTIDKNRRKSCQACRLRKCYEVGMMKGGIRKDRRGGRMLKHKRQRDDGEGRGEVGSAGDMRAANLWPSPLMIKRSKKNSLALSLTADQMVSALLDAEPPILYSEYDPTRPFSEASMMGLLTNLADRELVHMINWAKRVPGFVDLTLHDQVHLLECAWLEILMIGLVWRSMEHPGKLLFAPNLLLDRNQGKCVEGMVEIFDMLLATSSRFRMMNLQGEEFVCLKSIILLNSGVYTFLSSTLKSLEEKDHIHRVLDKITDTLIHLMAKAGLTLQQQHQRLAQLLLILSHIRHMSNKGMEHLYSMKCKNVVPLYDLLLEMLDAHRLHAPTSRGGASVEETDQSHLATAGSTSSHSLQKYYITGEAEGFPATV
Experiment: MCF-7 ER degradation assay (cell based immuno-fluorescence)
Settings: MCF-7 cells; for ER degradation ≥ 90% at 0.3 μM: ER degradation by fulvestrant at 0.3 μM is defined as 100%; for DC50: 18-22 hours incubation, 50% reduction of ERα expression, single experiment or average of two or more, read-out: MCF-7 ER degradation IC50
In short: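 MCF-7 human ductal carcinoma breast cells were seeded at 3.75×10^4 cells per mL (40 μL per well) in 384 well plates with phenol red free DMEM containing 2 mM L-Glutamine and 5% (v/v) Charcoal/Dextran treated foetal calf serum. After overnight culture, compounds were acoustically dispensed, incubated 18-22 hours, then cells were formaldehyde-fixed and immunostained for ERα.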

Compound	ER degradation ≥ 90% at 0.3 μM	DC50
Cc1ncsc1-c1ccc(CNC(=O)[C@@H]2C[C@@H](O)CN2C(=O)[C@@H](NC(=O)COCCOc2ccc(COc3cc(F)c([C@@H]4c5[nH]c6ccccc6c5C[C@@H](C)N4CC(C)(C)F)c(F)c3)cc2)C(C)(C)C)cc1 [Example 5, (2S,4R)-1-((S)-2-(2-(2-(4-((3,5-Difluoro-4-((1R,3R)-2-(2-fluoro-2-methylpropyl)-3-methyl-2,3,4,9-tetrahydro-1H-pyrido[3,4-b]indol-1-yl)phenoxy)methyl)phenoxy)ethoxy)acetamido)-3,3-dimethylbutanoyl)-4-hydroxy-N-(4-(4-methylthiazol-5-yl)benzyl)pyrrolidine-2-carboxamide]	•	2.6 nM
Cc1ncsc1-c1ccc(CNC(=O)[C@@H]2C[C@@H](O)CN2C(=O)[C@@H](NC(=O)COCCCCCCCOc2ccc([C@@H]3c4[nH]c5ccccc5c4C[C@@H](C)N3CC(F)F)nc2)C(C)(C)C)cc1 [Example 6, (2S,4R)-1-((S)-2-(2-((7-((6-((1S,3R)-2-(2,2-Difluoroethyl)-3-methyl-2,3,4,9-tetrahydro-1H-pyrido[3,4-b]indol-1-yl)pyridin-3-yl)oxy)heptyl)oxy)acetamido)-3,3-dimethylbutanoyl)-4-hydroxy-N-(4-(4-methylthiazol-5-yl)benzyl)pyrrolidine-2-carboxamide]	••	3.6 nM
Cc1ncsc1-c1ccc(CNC(=O)[C@@H]2C[C@@H](O)CN2C(=O)[C@@H](NC(=O)COCCCCCCCOc2cc(F)c([C@@H]3c4[nH]c5ccccc5c4C[C@@H](C)N3CC(C)(C)F)c(F)c2)C(C)(C)C)cc1 [Example 7, (2S,4R)-1-((S)-2-(2-((7-(3,5-Difluoro-4-((1R,3R)-2-(2-fluoro-2-methylpropyl)-3-methyl-2,3,4,9-tetrahydro-1H-pyrido[3,4-b]indol-1-yl)phenoxy)heptyl)oxy)acetamido)-3,3-dimethylbutanoyl)-4-hydroxy-N-(4-(4-methylthiazol-5-yl)benzyl)pyrrolidine-2-carboxamide]	••	1.6 nM
Cc1ncsc1-c1ccc(CNC(=O)[C@@H]2C[C@@H](O)CN2C(=O)[C@@H](NC(=O)COCCCCCCOc2ccc([C@@H]3c4[nH]c5ccccc5c4C[C@@H](C)N3CC(F)F)nc2)C(C)(C)C)cc1 [Example 8, (2S,4R)-1-((S)-2-(2-((6-((6-((1S,3R)-2-(2,2-Difluoroethyl)-3-methyl-2,3,4,9-tetrahydro-1H-pyrido[3,4-b]indol-1-yl)pyridin-3-yl)oxy)hexyl)oxy)acetamido)-3,3-dimethylbutanoyl)-4-hydroxy-N-(4-(4-methylthiazol-5-yl)benzyl)pyrrolidine-2-carboxamide]	••	9.4 nM
Cc1ncsc1-c1ccc(CNC(=O)[C@@H]2C[C@@H](O)CN2C(=O)[C@@H](NC(=O)COCCCCCOCCOc2cc(F)c([C@@H]3c4[nH]c5ccccc5c4C[C@@H](C)N3CC(C)(C)F)c(F)c2)C(C)(C)C)cc1 [Example 9, (2S,4R)-1-((S)-2-(2-((5-(2-(3,5-Difluoro-4-((1R,3R)-2-(2-fluoro-2-methylpropyl)-3-methyl-2,3,4,9-tetrahydro-1H-pyrido[3,4-b]indol-1-yl)phenoxy)ethoxy)pentyl)oxy)acetamido)-3,3-dimethylbutanoyl)-4-hydroxy-N-(4-(4-methylthiazol-5-yl)benzyl)pyrrolidine-2-carboxamide]	••	0.7 nM
Cc1ncsc1-c1ccc(CNC(=O)[C@@H]2C[C@@H](O)CN2C(=O)[C@@H](NC(=O)COCCCCCOCCOc2ccc([C@@H]3c4[nH]c5ccccc5c4C[C@@H](C)N3CC(F)F)nc2)C(C)(C)C)cc1 [Example 10, (2S,4R)-1-((S)-2-(2-((5-(2-((6-((1S,3R)-2-(2,2-Difluoroethyl)-3-methyl-2,3,4,9-tetrahydro-1H-pyrido[3,4-b]indol-1-yl)pyridin-3-yl)oxy)ethoxy)pentyl)oxy)acetamido)-3,3-dimethylbutanoyl)-4-hydroxy-N-(4-(4-methylthiazol-5-yl)benzyl)pyrrolidine-2-carboxamide]	••	12 nM
Cc1ncsc1-c1ccc(CNC(=O)[C@@H]2C[C@@H](O)CN2C(=O)[C@@H](NC(=O)CCCCCCCCCOc2cc(F)c([C@@H]3c4[nH]c5ccccc5c4C[C@@H](C)N3CC(C)(C)F)c(F)c2)C(C)(C)C)cc1 [Example 11, (2S,4R)-1-((S)-2-(10-(3,5-Difluoro-4-((1R,3R)-2-(2-fluoro-2-methylpropyl)-3-methyl-2,3,4,9-tetrahydro-1H-pyrido[3,4-b]indol-1-yl)phenoxy)decanamido)-3,3-dimethylbutanoyl)-4-hydroxy-N-(4-(4-methylthiazol-5-yl)benzyl)pyrrolidine-2-carboxamide]	••	3.2 nM
Cc1ncsc1-c1ccc(CNC(=O)[C@@H]2C[C@@H](O)CN2C(=O)[C@@H](NC(=O)COCCCCCCCCOc2cc(F)c([C@@H]3c4[nH]c5ccccc5c4C[C@@H](C)N3CC(C)(C)F)c(F)c2)C(C)(C)C)cc1 [Example 12, (2S,4R)-1-((S)-2-(2-((8-(3,5-Difluoro-4-((1R,3R)-2-(2-fluoro-2-methylpropyl)-3-methyl-2,3,4,9-tetrahydro-1H-pyrido[3,4-b]indol-1-yl)phenoxy)octyl)oxy)acetamido)-3,3-dimethylbutanoyl)-4-hydroxy-N-(4-(4-methylthiazol-5-yl)benzyl)pyrrolidine-2-carboxamide]	••	6.6 nM
Cc1ncsc1-c1ccc(CNC(=O)[C@@H]2C[C@@H](O)CN2C(=O)[C@@H](NC(=O)COCCCCCCCCOc2ccc([C@@H]3c4[nH]c5ccccc5c4C[C@@H](C)N3CC(F)F)nc2)C(C)(C)C)cc1 [Example 13, (2S,4R)-1-((S)-2-(2-((8-((6-((1S,3R)-2-(2,2-Difluoroethyl)-3-methyl-2,3,4,9-tetrahydro-1H-pyrido[3,4-b]indol-1-yl)pyridin-3-yl)oxy)octyl)oxy)acetamido)-3,3-dimethylbutanoyl)-4-hydroxy-N-(4-(4-methylthiazol-5-yl)benzyl)pyrrolidine-2-carboxamide]	•	3.7 nM
Cc1ncsc1-c1ccc(CNC(=O)[C@@H]2C[C@@H](O)CN2C(=O)[C@@H](NC(=O)COCCCCOc2cc(F)c([C@@H]3c4[nH]c5ccccc5c4C[C@@H](C)N3CC(C)(C)F)c(F)c2)C(C)(C)C)cc1 [Example 14, (2S,4R)-1-((S)-2-(2-(4-(3,5-Difluoro-4-((1R,3R)-2-(2-fluoro-2-methylpropyl)-3-methyl-2,3,4,9-tetrahydro-1H-pyrido[3,4-b]indol-1-yl)phenoxy)butoxy)acetamido)-3,3-dimethylbutanoyl)-4-hydroxy-N-(4-(4-methylthiazol-5-yl)benzyl)pyrrolidine-2-carboxamide]	•	1.4 nM
Cc1ncsc1-c1ccc(CNC(=O)[C@@H]2C[C@@H](O)CN2C(=O)[C@@H](NC(=O)CCCCCCCCOc2cc(F)c([C@@H]3c4[nH]c5ccccc5c4C[C@@H](C)N3CC(C)(C)F)c(F)c2)C(C)(C)C)cc1 [Example 15, (2S,4R)-1-((S)-2-(9-(3,5-Difluoro-4-((1R,3R)-2-(2-fluoro-2-methylpropyl)-3-methyl-2,3,4,9-tetrahydro-1H-pyrido[3,4-b]indol-1-yl)phenoxy)nonanamido)-3,3-dimethylbutanoyl)-4-hydroxy-N-(4-(4-methylthiazol-5-yl)benzyl)pyrrolidine-2-carboxamide]	•	3.9 nM
Cc1ncsc1-c1ccc(CNC(=O)[C@@H]2C[C@@H](O)CN2C(=O)[C@@H](NC(=O)COCCCCOCCOc2cc(F)c([C@@H]3c4[nH]c5ccccc5c4C[C@@H](C)N3CC(C)(C)F)c(F)c2)C(C)(C)C)cc1 [Example 16, (2S,4R)-1-((S)-2-(2-(4-(2-(3,5-Difluoro-4-((1R,3R)-2-(2-fluoro-2-methylpropyl)-3-methyl-2,3,4,9-tetrahydro-1H-pyrido[3,4-b]indol-1-yl)phenoxy)ethoxy)butoxy)acetamido)-3,3-dimethylbutanoyl)-4-hydroxy-N-(4-(4-methylthiazol-5-yl)benzyl)pyrrolidine-2-carboxamide]	••	0.8 nM
Cc1ncsc1-c1ccc(CNC(=O)[C@@H]2C[C@@H](O)CN2C(=O)[C@@H](NC(=O)COCCCCCOc2ccc([C@@H]3c4[nH]c5ccccc5c4C[C@@H](C)N3CC(F)F)nc2)C(C)(C)C)cc1 [Example 17, (2S,4R)-1-((S)-2-(2-((5-((6-((1S,3R)-2-(2,2-Difluoroethyl)-3-methyl-2,3,4,9-tetrahydro-1H-pyrido[3,4-b]indol-1-yl)pyridin-3-yl)oxy)pentyl)oxy)acetamido)-3,3-dimethylbutanoyl)-4-hydroxy-N-(4-(4-methylthiazol-5-yl)benzyl)pyrrolidine-2-carboxamide]	•	41 nM
